Source: US8399514B2, “Treatment for multiple sclerosis” (Biogen Idec MA Inc., priority 2007, dated 2013)

Experiments:
Nrf2 [1] = experiment: Western blot of Nrf2 and NQO1 in DLD1 cells treated with DMF or MMF; format: cell-based, human; conditions: DLD1 cells in culture; 5, 15, or 50 μM; 16 hours
Method: Human colon carcinoma DLD1 cells were treated with DMF or MMF at indicated concentrations (5, 15, or 50 μM) for 16 hours, rinsed with PBS, and harvested into reducing SDS sample buffer. The lysates were subjected to SDS PAGE and the separated proteins were electrophoretically transferred onto nitrocellulose membranes for Western blot analysis. To detect Nrf2 and NQO1, the membranes were incubated with the respective primary antibodies overnight at 4° C., washed, and incubated with peroxidase-conjugated secondary antibodies followed by the chemiluminescent peroxidase substrate. Detection of the target protein band luminescence and image acquisition were done using CCD-equipped imaging station Kodak2000R.

Nrf2 [2] = experiment: Nrf2 immunohistochemistry of spinal cord tissues in MOG 35-55 induced EAE; format: in vivo; conditions: EAE mice, oral gavage twice a day from day 3 p.i., DMF 5 or 15 mg/kg, MMF 15 mg/kg
Method: For induction of EAE, mice received s.c. injections in the flanks and tail base of 50 μg MOG 35-55 peptide in PBS emulsified in an equal volume of complete Freund's adjuvant (CFA) containing Mycobacterium tuberculosis H37RA (Difco, Detroit Mich., USA) at a final concentration of 0.5 mg/ml. Two injections of pertussis toxin (List Biological Laboratories Inc., California, USA; […] i.p) were given on days 0 and 2.
DMF and MMF was diluted in 200 μl 0.08% Methocel/H2O as vehicle and administered by oral gavage starting from day 3 post immunization (p.i) until termination. Each treatment group consisted of 8 animals: vehicle alone as a negative control, 5 mg/kg body weight DMF twice a day, 15 mg/kg body weight DMF twice a day, 15 mg/kg body weight MMF twice a day. The compounds were obtained via Fumapharm AG. Oral gavage was used to ensure exact dosing and to avoid compound degradation.
Spinal cord tissues were fixed in 4% paraformaldehyde and embedded in paraffin. […]
Immunohistochemistry was performed using the Dako autostainer as follows. […] The rabbit anti Nrf2 antibody C-20 (sc-722, Santa Cruz Biotechnology) was added at a 1:250 dilution in Dako Diluent with Background Reducing Components (Dako # S3022) C-20 antibody was detected using the Envision anti rabbit labeled polymer-HRP (Dako #K4003) and DAB (Vector Labs #SK-4100) was used as the chromogenic substrate. […]

Nrf2 [3] = experiment: RNAi (siRNA Nrf2/Keap1) experiment in DLD1 cells stimulated with DMF, Western blot of Nrf2 and NQO1; format: cell-based, human; conditions: 30 μM DMF for 40 hours
Method: DLD1 cells were grown in MEM supplemented with 10% fetal bovine serum. The cells were transfected with the indicated siRNA's using the Lipofectamine reagent (Invitrogen) according to the manufacturer's instructions and 30 hrs later stimulated with 30 μM DMF for 40 hours. The cells were harvested and processed for Western blotting analysis of Nrf2 and NQO1 levels as described in Example 1. Sources and the identity of reagents used in Examples 1 and 2 are specified Table 3 below: […]

Row | Compound | activation of Nrf2 (Nrf2 and NQO1 protein levels, Western blot, FIG. 1) (Nrf2 [1]) | activation of Nrf2 in vivo (Nrf2 immunostaining, morphometric analysis, FIGS. 3 and 4) (Nrf2 [2]) | DMF-induced upregulation of NQO1, dependence on Nrf2 (FIG. 2) (Nrf2 [3]; DLD1 cells transfected with Nrf2 or Keap1 siRNA) | Nrf2 agonism: cellular accumulation of Nrf2 and Nrf2 target gene expression (FIG. 2) (Nrf2 [3]; DLD1 cells)
1 | COC(=O)/C=C/C(=O)OC [DMF] | potent activators of Nrf2 | activation of Nrf2 in vivo | upregulation of NQO1 requires Nrf2 | acts as an Nrf2 agonist
2 | COC(=O)/C=C/C(=O)O [MMF] | potent activators of Nrf2 | activation of Nrf2 in vivo |  | 
